These results are taken from US20230331720A1, “MEDIUM- OR MACRO-CYCLIC BENZYL-SUBSTITUTED HETEROCYCLE DERIVATIVES AND THEIR USES AS OREXIN-2 RECEPTOR AGONISTS” (Orexia Therapeutics Limited, priority 2020, published 2023).

The target of this assay is T1, human orexin type 2 receptor (hOX2R) (Homo sapiens, UniProt O43614).
T1 construct: expressed in transfected cells
T1 sequence (O43614 1-444): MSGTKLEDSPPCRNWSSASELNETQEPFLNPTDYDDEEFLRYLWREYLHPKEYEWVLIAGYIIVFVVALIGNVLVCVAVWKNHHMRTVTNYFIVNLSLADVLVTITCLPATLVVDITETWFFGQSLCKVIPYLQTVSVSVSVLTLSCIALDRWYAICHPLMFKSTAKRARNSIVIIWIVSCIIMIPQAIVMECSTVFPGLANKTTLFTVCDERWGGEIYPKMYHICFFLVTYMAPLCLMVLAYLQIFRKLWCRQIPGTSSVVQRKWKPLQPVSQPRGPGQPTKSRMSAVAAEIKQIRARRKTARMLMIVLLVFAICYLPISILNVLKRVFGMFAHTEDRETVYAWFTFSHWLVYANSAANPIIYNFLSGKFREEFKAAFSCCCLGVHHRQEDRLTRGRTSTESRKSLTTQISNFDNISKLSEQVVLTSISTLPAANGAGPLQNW
The assay can be described thus: Orexin type 2 receptor agonist activity, intracellular Ca2+ (FLIPR TETRA). The format is cell-based. The note with it: CHO cells expressing hOX2R; Ca2+ fluorescence area; read-out: hOx2 pEC50 (converted). As for the experimental part:
Stable cell line generation. Obtainment of cells stably expressing either human orexin type 2 or human orexin type 1 receptor; to obtain a stable cell line the Orexin receptor cDNA was inserted into pcDNA3.1(+) plasmid vector and clones identified by G418 drug resistance selection. […] A single clone for OX2R-CHO and OX1R-CHO were grown in bulk and frozen to generate a cell bank for routine screening.
Measurement of orexin type 2 receptor agonist activity. Chinese hamster ovary (CHO) cells expressing human orexin type 2 receptor (hOX2R) or human orexin type 1 receptor (hOX1R) were seeded in each well of 384 well black clear bottom plates (BD Flacon) at 10,000 cells per well and cultured for 24 hr in an Ham's F12 (Gibco) medium containing 10% fetal calf serum (Sigma Aldrich) under the conditions of 37° C., 5% CO2. After removal of the medium, 50 μl of assay buffer 1 (0.1% bovine serum albumin (Sigma Aldrich), 20 mM HEPES (Molecular Dimensions), […] probenecid (Sigma Aldrich), 1× Calcium 5 dye (Molecular Devices) in Hank's balanced salt solution (Invitrogen)) was added, and the cells were incubated for 60 min under the conditions of 37° C., 5% CO2. A test compound was dissolved in dimethyl sulfoxide (Sigma Aldrich) to 10 mM, and then diluted with assay buffer 2 (20 mM HEPES, Hank's balanced salt solution, 0.1% bovine serum albumin). For the reaction, a test compound solution (10 μl) was added using Fluorescent Imaging Plate Reader TETRA (FLIPR TETRA: manufactured by Molecular Devices), a fluorescence value (excitation wavelength 488 nm, measurement wavelength 570 nm) of each well was measured every one second for 2 min, and the agonist activity was determined using the area of the fluorescence value as an indicator of intracellular Ca^2+ concentration. The agonist activity of the test compound was calculated assuming that the fluorescence value of the well added with only the dilution buffer was 0% and the fluorescence value of the well added with 10 nM human orexin A (Tocris) buffer was 100%. As used herein, Emax indicates the value at 10 μM concentration when orexin A is converted to a full agonist (maximum value of agonist activity: 100%).

In the case of `O=C1CCOc2ccccc2-c2cccc(c2F)C[C@H]2[C@@H](NS(=O)(=O)C(F)F)CCCN12` [Compound A1-98], the EC50 is 0.1 to 1 nM.

Take `CCS(=O)(=O)NC1CCN2C(=O)CCC/C=C/c3ccccc3-c3cccc(c3)CC12` (mixture of isomers) [Compound A1-36, (E/Z)—N-(5-oxo-4(2,1)-pyrrolidina-1(1,2),2(1,3)-dibenzenacyclodecaphan-9-en-4^3-yl)ethanesulfonamide]: the EC50 was 100 to 1000 nM.

As to `O=C1CCOc2ccccc2-c2cccc(c2)C[C@H]2[C@@H](NS(=O)(=O)C3CC3)CCCN12` [Compound A1-84], the EC50 was 0.1 to 1 nM. On to `CCS(=O)(=O)NC1CCN2C(=O)OCC/C=C\Cc3ccccc3-c3cccc(c3)CC12` (racemic) [Compound A1-56, (E/Z)—N-(5-oxo-6-oxa-4(2,1)-pyrrolidina-1(1,2),2(1,3)-dibenzenacyclo-undecaphan-9-en-4^3-yl)ethanesulfonamide], for which the EC50 is 100 to 1000 nM. For `CCS(=O)(=O)NC1CCN2C(=O)NCCCCCc3c(F)cc(F)cc3-c3cccc(c3)CC12` (racemic) [Compound A1-16, N-(1^3,1^5-difluoro-5-oxo-6-aza-4(2,1)-pyrrolidina-1-(1,2),2-(1,3)-dibenzena-cycloundecaphane-4^3-yl)ethanesulfonamide] the value was 10 to 100 nM; for `CCS(=O)(=O)NC1CCN2C(=O)NCCCCCc3ccccc3-c3cccc(c3)CC12` (racemic) [Compound A1-50, N-(5-oxo-6-aza-4(2,1)-pyrrolidina-1(1,2),2(1,3)-dibenzenacyclo-undecaphane-43-yl)ethanesulfonamide], 1 to 10 nM; for `CS(=O)(=O)N[C@H]1CCCN2C(=O)CCCOc3ccccc3-c3cccc(c3)C[C@@H]12` [Compound A1-64], 10 to 100 nM. Consider `CCS(=O)(=O)NC1CCN2C(=O)CCCCCc3ccccc3-c3cccc(c3)CC12` (racemic) [Compound A1-48, N-(5-oxo-4(2,1)-pyrrolidina-1(1,2),2(1,3)-dibenzenacyclodecaphane-4^3-yl)ethanesulfonamide], for which the EC50 was 10 to 100 nM. For `CCS(=O)(=O)NC1CCN2C(=O)CCCOc3ccccc3-c3cccc(c3)CC12` (racemic) [Compound A1-31, N-(5-oxo-9-oxa-4(2,1)-pyrrolidina-1(1.2),2(1,3)-dibenzenacyclo-nonaphane-4^3-yl)ethanesulfonamide] the value was 100 to 1000 nM; for `O=C1CCOc2ccccc2-c2cc(ccc2F)C[C@H]2[C@@H](NS(=O)(=O)CF)CCCN12` [Compound A1-87, 1-fluoro-N-((4^2S,4^3S)-26-fluoro-5-oxo-8-oxa-4(2,1)-piperidina-1(1,2),2(1,3)-dibenzenacyclooctaphane-4^3-yl)methanesulfonamide], 1 to 10 nM; for `CS(=O)(=O)N[C@@H]1CCCN2C(=O)NCCOc3ccccc3-c3cccc(c3)C[C@H]12` [Compound A1-3, N-((4^2R,4^3R)-5-oxo-9-oxa-6-aza-4(2,1)-piperidina-1(1,2),2(1,3)-dibenzenacyclo-nonaphane-4^3-yl)methanesulfonamide], 1 to 10 nM. For `CN1CCOc2ccccc2-c2cccc(c2F)C[C@H]2[C@@H](NS(=O)(=O)CF)[C@@H](F)CN2C1=O` [Compound A1-92, N-((4^2S,4^3R,4^4S)-2^2,4^4-difluoro-6-methyl-5-oxo-9-oxa-6-aza-4(2,1)-pyrrolidina-1(1,2),2(1,3)-dibenzenacyclononaphane-4^3-yl)-1-fluoromethanesulfonamide] the value was 1 to 10 nM. In the case of `CN(C)S(=O)(=O)N[C@H]1CCCN2C(=O)CCOc3ccccc3-c3cccc(c3)C[C@@H]12` [Compound A1-76, N-((4^2S,4^3S)-5-oxo-8-oxa-4(2,1)-piperidina-1(1,2),2(1,3)-dibenzenacyclooctaphane-4^3-yl)-N,N-dimethylsulfuric diamide] it was 1 to 10 nM; in that of `CCS(=O)(=O)NC1CCN2C(=O)N(C)CCCCCc3ccccc3-c3cccc(c3)CC12` (racemic) [Compound A1-18, N-(6-methyl-5-oxo-6-aza-4(2,1)-pyrrolidina-1(1,2),2(1,3)-dibenzenacyclo-undecaphane-43-yl)ethanesulfonamide], 1 to 10 nM; in that of `CCS(=O)(=O)N[C@H]1CCN2C(=O)NCCOc3ccccc3-c3cccc(c3)C[C@@H]12` [Compound A1-7, N-((4^2S,4^3S)-5-oxo-9-oxa-6-aza-4(2,1)-pyrrolidina-1-(1,2),2-(1,3)-dibenzenacyclo-nonaphane-4′-yl)ethanesulfonamide], 10 to 100 nM. With `COc1c2cccc1-c1ccccc1OCCNC(=O)N1C[C@H](F)[C@H](NS(=O)(=O)CF)[C@@H]1C2` [Compound A1-88], the EC50 was 10 to 100 nM. In the case of `CCS(=O)(=O)NC1CCN2C(=O)NCC/C=C/Cc3ccccc3-c3cccc(c3)CC12` (racemic) [Compound A1-52, (E/Z)—N-(5-oxo-6-aza-4(2,1)-pyrrolidina-1(1,2),2(1.3)-dibenzenacyclo-undecaphan-9-en-43-yl)ethanesulfonamide] it was 1 to 10 nM. Consider `CS(=O)(=O)N[C@H]1CCCN2C(=O)CCOc3ccccc3-c3cccc(c3F)C[C@@H]12` [Compound A1-82, N-((4^2S,4^3S)-22-fluoro-5-oxo-8-oxa-4(2.1)-piperidina-1(1,2),2(1.3)-dibenzenacyclooctaphane-4^3-yl)methanesulfonamide], for which the EC50 is 1 to 10 nM.

For `CS(=O)(=O)N[C@H]1CCCN2C(=O)CCOc3ccccc3-c3cccc(c3)C[C@@H]12` [Compound A1-78, N-((4^2S,4^3S)-5-oxo-8-oxa-4(2,1)-piperidina-1(1,2),2(1,3)-dibenzenacyclo-octaphane-4^3-yl)methanesulfonamide], the EC50 is 1 to 10 nM. In the case of `CS(=O)(=O)NC1CCN2C(=O)N3CC(CCc4ccccc4-c4cccc(c4)CC12)C3` (racemic) [Compound A1-13, N-(5-oxo-4-(2,1)-pyrrolidina-6-(1.3)-azetidina-1-(1,2),2-(1,3)-dibenzena-cyclooctaphane-4^3-yl)methanesulfonamide] it was 10 to 100 nM. Take `CCS(=O)(=O)NC1CCN2C(=O)CCCCCCc3ccccc3-c3cccc(c3)CC12` (racemic) [Compound A1-39, N-(5-oxo-4(2,1)-pyrrolidina-1(1,2),2(1,3)-dibenzenacycloundecaphane-4^3-yl)ethanesulfonamide]: the EC50 was 1 to 10 nM. In the case of `CCS(=O)(=O)NC1CCN2C(=O)CC/C=C\c3ccccc3-c3cccc(c3)CC12` (racemic) [Compound A1-26, (E/Z)—N-(5-oxo-4(2,1)-pyrrolidina-1(1,2),2(1,3)-dibenzenacyclononaphan-8-en-4^3-yl)ethanesulfonamide], the EC50 was 100 to 1000 nM. As for `COc1c2cccc1-c1ccccc1OCCN(C)C(=O)N1C[C@H](F)[C@H](NS(=O)(=O)CF)[C@@H]1C2` [Compound A1-86], the EC50 is 1 to 10 nM.

With `CCS(=O)(=O)NC1CCN2C(=O)NC/C=C/Cc3ccccc3-c3cccc(c3)CC12` (racemic) [Compound A1-51, (E/Z)—N-(5-oxo-6-aza-4(2,1)-pyrrolidina-1(1,2),2(1.3)-dibenzenacyclo-decaphan-8-en4^3-yl)ethanesulfonamide], the EC50 is 10 to 100 nM. Consider `CCS(=O)(=O)NC1CCN2C(=O)NCCCCc3ccccc3-c3cccc(c3)CC12` (racemic) [Compound A1-49, N-(5-oxo-6-aza-4(2,1)-pyrrolidina-1(1,2),2(1,3)-dibenzenacyclodecaphane-4^3-yl)ethanesulfonamide], for which the EC50 is 10 to 100 nM.

Take `CCS(=O)(=O)N[C@@H]1CCN2C(=O)NCCCCCc3ccccc3-c3cccc(c3)C[C@H]12` (single isomer, unassigned) [Compound A1-43, N-((4^2R,4^3R)-5-oxo-6-aza-4(2,1)-pyrrolidina-1(1,2),2(1,3)-dibenzenacycloundecaphane-4^3-yl)ethanesulfonamide]: the EC50 is 100 to 1000 nM.

As to `O=C1CCOc2c(F)cccc2-c2cccc(c2)C[C@H]2[C@@H](NS(=O)(=O)CF)CCCN12` [Compound A1-90, 1-fluoro-N-((4^2S,4^3S)-13-fluoro-5-oxo-8-oxa-4(2,1)-piperidina-1(1,2),2(1,3)-dibenzenacyclooctaphane-4^3-yl)methanesulfonamide], the EC50 was 0.1 to 1 nM.
